Test results reported in ChEMBL document CHEMBL3886764, “Acetamide derivatives” (2016).

Biological target: Transient receptor potential cation channel subfamily A member 1 (Homo sapiens, UniProt O75762)
Test: Dose Response Assay: Compound plates were resuspended with 100 ul of HBSS/20 mM HEPES/0.005% BSA buffer (Compound Buffer): column 1A-H: buffer/DMSO (bk); column 2A-H: AP-18 (control antagonist for CHOK1 TRPA1 cells); column 1I-P: ATP (control for CHOK1 teton cells); column 2 I-P: 2APB (control antagonist for CHOK1/TRPM8 cells). Growth media was removed from the cell plates (20 ul) and 20 ul of the Replacement Buffer was added followed by addition of 25 ul of diluted dye. All three steps were performed using a Plate Washer BioTek 407. The plates were then incubated for 30' at RT. After incubation, both the cell and compound plates were brought to the FLIPR and 20 ul of the diluted compounds/antagonist/bk were transferred to the cell plates by the FLIPR. Plates were then incubated for 30' at room temperature. After 30' incubation, plates were returned to the FLIPR and 20 ul of 4.5× Cinnamaldehyde was added to the cell plates. During the compound addition as well as agonist addition, fluorescence readings were taken simultaneously from all 384 wells of the cell plate every 1.5 seconds. Five readings were taken to establish a stable baseline, then 20 ul of sample was rapidly (30 ul/sec) and simultaneously added to each well of the cell plate. […]

Chain of Transient receptor potential cation channel subfamily A member 1 (O75762 whole entry): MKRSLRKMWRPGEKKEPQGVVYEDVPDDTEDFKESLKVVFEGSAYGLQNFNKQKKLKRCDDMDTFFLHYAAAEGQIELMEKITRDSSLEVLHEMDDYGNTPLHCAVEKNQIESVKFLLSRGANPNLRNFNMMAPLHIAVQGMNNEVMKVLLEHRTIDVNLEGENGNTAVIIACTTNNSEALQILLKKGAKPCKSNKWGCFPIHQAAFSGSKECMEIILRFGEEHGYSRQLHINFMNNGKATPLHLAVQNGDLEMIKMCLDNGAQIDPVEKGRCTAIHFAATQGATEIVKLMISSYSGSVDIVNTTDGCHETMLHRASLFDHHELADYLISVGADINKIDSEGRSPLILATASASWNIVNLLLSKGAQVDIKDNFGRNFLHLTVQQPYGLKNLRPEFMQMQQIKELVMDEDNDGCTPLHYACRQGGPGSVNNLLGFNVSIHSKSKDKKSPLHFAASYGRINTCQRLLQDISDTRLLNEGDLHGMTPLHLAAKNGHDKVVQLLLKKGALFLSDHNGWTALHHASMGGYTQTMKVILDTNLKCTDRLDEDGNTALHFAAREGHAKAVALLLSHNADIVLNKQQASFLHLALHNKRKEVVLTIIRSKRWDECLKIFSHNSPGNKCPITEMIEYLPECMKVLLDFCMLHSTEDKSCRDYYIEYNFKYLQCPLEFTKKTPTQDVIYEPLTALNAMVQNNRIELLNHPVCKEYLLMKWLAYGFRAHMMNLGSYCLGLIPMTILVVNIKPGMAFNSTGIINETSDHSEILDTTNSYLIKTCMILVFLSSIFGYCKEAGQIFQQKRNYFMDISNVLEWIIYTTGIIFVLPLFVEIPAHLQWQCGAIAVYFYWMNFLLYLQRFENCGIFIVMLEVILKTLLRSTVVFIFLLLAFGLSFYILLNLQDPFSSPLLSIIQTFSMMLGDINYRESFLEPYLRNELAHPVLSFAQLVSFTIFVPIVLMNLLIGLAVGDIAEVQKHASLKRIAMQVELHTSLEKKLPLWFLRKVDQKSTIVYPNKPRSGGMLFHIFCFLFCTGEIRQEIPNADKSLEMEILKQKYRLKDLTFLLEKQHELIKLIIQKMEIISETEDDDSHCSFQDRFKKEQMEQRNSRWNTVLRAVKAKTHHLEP

CN(CC(=O)NCC1CN(c2ccc(C(F)(F)F)cc2)CCO1)S(=O)(=O)c1ccc(F)cc1 (stereo unspecified)
IC50: 1520 nM
